{"source": "patent US8263736B2", "about": "“Compounds and their effects on feeding behaviour” (Imperial Innovations Limited, priority 2006, dated 2012)", "key": {"[1]": {"system": "Male C57BL/6 mice", "assay": "Food intake in fasted mice, dose response experiment for PYY3-36Lys12Lauryl (Example 2)", "format": "in vivo", "method": "(§1) Male C57BL/6 mice (20-30 g) were used for all mouse experiments. Mice were individually housed in IVC cages. Animals were randomised by weight and fasted overnight for 16 hrs before intraperitoneal injection at 9 am. Food intake was measured at 1, 2, 3, 4, 6, 8 and 24 hours post injection. All peptide solutions were prepared freshly the morning of the study and injected as 100 ul. All statistics are calculated using a one-way ANOVA with Dunnett's post-test or one-way ANOVA with Bonferroni post-test.\n(§2) A control of saline was used."}, "[2]": {"system": "Male C57BL/6 mice", "assay": "Food intake in fasted mice after a single intraperitoneal injection (Example 1, 3 different PYY analogues)", "format": "in vivo", "details": "single i.p. injection", "method": "as §1, §2"}}}
{"substance": "PYY3-36Lys12Lauryl: PYY3-36 with the residue at position 12 replaced with a lysine residue coupled to a lauroyl group, SEQ ID NO: 14", "values": [{"measurement": "onset of food intake reduction compared with 60 nmol/kg native PYY3-36", "setting": "[1]; 240 nmol/kg, mice", "value": "slower onset of food intake reduction"}, {"measurement": "persistence of food intake reduction compared with 60 nmol/kg native PYY3-36", "setting": "[1]; 240 nmol/kg, mice", "value": "greater persistence of effect"}, {"measurement": "food consumed in the first, second and third hour: relation to dose", "setting": "[1]; 60, 120 and 240 nmol/kg, single i.p. injection, 240 greater effect than 120, both greater than 60 nmol/kg", "value": "does-response relationship"}, {"measurement": "time at which food intake (in a given time period) becomes greater than in saline control mice", "setting": "[1]; single i.p. injection, PYY3-36Lys12Lauryl 60, 120, 240 nmol/kg, PYY3-36 30 nmol/kg, FIG. 5", "value": "around 6 hours"}, {"measurement": "overall reduction in cumulative food intake versus saline control", "setting": "[2]; 120 nmol/kg, 24 hour period, fasted mice", "value": 6.1, "unit": "%"}, {"measurement": "persistence of effect on food intake compared with saline, PYY3-36 (30 nmol/kg) and PYY3-36Lys12 (60 and 120 nmol/kg)", "setting": "[2]", "value": "most sustained effect"}]}
